From patent publication US12564638B2 (SHANGHAITECH UNIVERSITY, priority 2019, dated 2026) come the findings set out here.

Test [1] deals with HCC827 cells (EGFR Exon19 del, non-small cell lung cancer cells). As to the kind of experiment: Cell viability assay (WST/CCK8), HCC827 cells. It counts as cell-based. To be noted: Homo sapiens, HCC827, 72 h, 72 hours, read-out: IC50 (half inhibitory concentration). The procedure, abridged: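 Plated 3 000 cells/well in complete RPMI1640 the day before dosing; controls were DMSO (negative) and EGFR TKIs (positive).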

For test [2], the system named is PC9 cells (EGFR Exon 19 del, non-small cell lung cancer cells). Description: Cell viability assay (WST/CCK8), PC9 cells. It counts as cell-based. The note with it: Homo sapiens, PC-9, PC9 (Exon19 Del), 72 hours, read-out: IC50 (half inhibitory concentration). The source says: The cell lines with abnormal EGFR expression used are as follows: • HCC827 cells (EGFR Exon19 del, non-small cell lung cancer cells); • PC9 cells (EGFR Exon 19 del, non-small cell lung cancer cells); • PC9BracA1 (EGFR Exon 19 del+T790M, non-small cell lung cancer cells) • H1975 (EGFR Exon T790M+L858R mutation, non-small cell lung cancer cell line) • BT474 cells (HER2 positive breast cancer cells)
All of the half inhibitory concentrations (IC50) of these compounds of the present invention were determined with WST reagent from Fuyuan Biotec Company. The specific experiment procedures are as follows: Cancer cells were planted in 96-well-plate at the density of 3 000 cells per well with 100 μL RPMI1640 completed culture medium. In the next day, compounds with indicated concentrations were added to the cells, DMSO was used as the negative control and the EGFR TKIs were used to treat cells as the positive groups. After 72 hours drug treatment, cell viability was measured by using the WST reagent following the instructions.
The cells were treated with the gradient concentration of these compounds (the maximum concentration: 10 μM; 3-fold dilution ratio, 10 concentration gradients) for 72 hours and then incubated with the WST (CCK8) reagent to determine the cell viability.

[3] abbreviates: HCC827 (Exon19 Del), WST (CCK8).
Where [4] appears, read: Table 4, gefitinib and sapitinib-based compounds, HCC827 (Exon19 Del), WST.
Setting [5] is: Table 4, gefitinib-based compounds, WST.
Setting [6] is: Table 8, osimertinib-based compounds, HCC827, WST.
Where [7] appears, read: Table 5, afatinib-based compounds, HCC827 (Exon19 Del), WST.

SMILES strings stand for the structures. Read-outs that look alike come from different tables or passages of the source.

As for `C=CC(=O)Nc1cc2c(Nc3ccc(F)c(Cl)c3)ncnc2cc1OCCCN1CCC(N2CCNCC2)CC1` [Caneritinib derivative B (SIAIS249183), N-(4-((3-chloro-4-fluorophenyl)amino)-7-(3-(4-(piperazin-1-yl)piperidin-1-yl)propoxy)quinazolin-6-yl)acrylamide], the IC50 in test [1] (Table 6, canertinib-based compounds, HCC827 (Exon19 Del), WST) stood at 15.9 nM; in test [2] (Table 6, canertinib-based compounds, WST), 13.9 nM.

On to `COc1cc2ncnc(Nc3ccc(F)c(Cl)c3)c2cc1NC(=O)/C=C/CN1CCNCC1` [Dacomitinib derivative A, (E)-N-(4-((3-chloro-4-fluorophenyl)amino)-7-methoxyquinazolin-6-yl)-4-(piperazin-1-yl)but-2-enamide], for which the IC50 was found to be 4 nM in test [1] (setting [3]) and 9.7 nM in test [2] (WST (CCK8)).

Take `COc1cc2ncnc(Nc3ccc(F)c(Cl)c3)c2cc1OCCCN1CCN(C(=O)CCCCCSc2cccc3c2C(=O)N(C2CCC(=O)NC2=O)C3=O)CC1` (centres unmarked) [SIAIS184166, 4-((6-(4-(3-((4-((3-chloro-4-fluorophenyl)amino)-7-methoxyquinazolin-6-yl)oxy)propyl)piperazin-1-yl)-6-oxohexyl)thio)-2-(2,6-dioxopiperidin-3-yl)isoindoline-1,3-dione]: the values for the IC50 in test [1] (setting [4]) and in test [2] (setting [5]) were 80 nM and 692 nM, respectively.

As for `COc1cc2ncnc(Nc3ccc(F)c(Cl)c3)c2cc1OCCCN1CCN(C(=O)COCCSc2cccc3c2C(=O)N(C2CCC(=O)NC2=O)C3=O)CC1` (centres unmarked) [SIAIS184168, 4-((2-(2-(4-(3-((4-((3-chloro-4-fluorophenyl)amino)-7-methoxyquinazolin-6-yl)oxy)propyl)piperazin-1-yl)-2-oxoethoxy)ethyl)thio)-2-(2,6-dioxopiperidin-3-yl)isoindoline-1,3-dione], the IC50 in test [1] (setting [4]) stood at 43 nM; in test [2] (setting [5]) it was 317 nM.

For the compound `COc1cc2ncnc(Nc3ccc(F)c(Cl)c3)c2cc1OCCCN1CCN(C(=O)COCCOCCOCCSc2cccc3c2C(=O)N(C2CCC(=O)NC2=O)C3=O)CC1` (centres unmarked) [SIAIS184169, 4-((2-(2-(2-(2-(4-(3-((4-((3-chloro-4-fluorophenyl)amino)-7-methoxyquinazolin-6-yl)oxy)propyl)piperazin-1-yl)-2-oxoethoxy)ethoxy)ethoxy)ethyl)thio)-2-(2,6-dioxopiperidin-3-yl)isoindoline-1,3-dione], the IC50 in test [1] (setting [4]) was found to be 22 nM; in test [2] (setting [5]), 318 nM.

Consider `COc1cc2ncnc(Nc3ccc(F)c(Cl)c3)c2cc1NC(=O)/C=C/CN1CCN(C(=O)CSc2cccc3c2CN(C2CCC(=O)NC2=O)C3=O)CC1` (centres unmarked) [SIAIS219185, (E)-N-(4-((3-chloro-4-fluorophenyl)amino)-7-methoxyquinazolin-6-yl)-4-(4-(2-((2-(2,6-dioxopiperidin-3-yl)-1-oxoisoindolin-4-yl)thio)acetyl)piperazin-1-yl)but-2-enamide], for which the IC50 is 15.7 nM in test [1] (setting [3]) and 23.3 nM in test [2] (WST (CCK8)).

Regarding `C=CC(=O)Nc1cc(Nc2nccc(-c3cn(C)c4ccccc34)n2)c(OC)cc1N(C)CCN(C)C(=O)CSc1cccc2c1CN(C1CCC(=O)NC1=O)C2=O` (centres unmarked) [SIAIS337052, N-(2-((2-(2-((2-(2,6-dioxopiperidin-3-yl)-1-oxoisoindolin-4-yl)thio)-N-methylacetamido)ethyl)(methyl)amino)-4-methoxy-5-((4-(1-methyl-1H-indol-3-yl)pyrimidin-2-yl)amino)phenyl)acrylamide], the IC50 in test [1] (setting [6]) was 353 nM.

Take `C=CC(=O)Nc1cc(Nc2nccc(-c3cn(C)c4ccccc34)n2)c(OC)cc1N(C)CCN(C)C(=O)CCCCSc1cccc2c1CN(C1CCC(=O)NC1=O)C2=O` (centres unmarked) [SIAIS337055, N-(2-((2-acrylamido-5-methoxy-4-((4-(1-methyl-1H-indol-3-yl)pyrimidin-2-yl)amino)phenyl)(methyl)amino)ethyl)-5-((2-(2,6-dioxopiperidin-3-yl)-1-oxoisoindolin-4-yl)thio)-N-methylpentanamide]: in test [1] (setting [6]), the IC50 stood at 461 nM.

For `C=CC(=O)Nc1cc(Nc2nccc(-c3cn(C)c4ccccc34)n2)c(OC)cc1N(C)CCN(C)C(=O)CCCCCCCCSc1cccc2c1CN(C1CCC(=O)NC1=O)C2=O` (centres unmarked) [SIAIS337059, N-(2-((2-acrylamido-5-methoxy-4-((4-(1-methyl-1H-indol-3-yl)pyrimidin-2-yl)amino)phenyl)(methyl)amino)ethyl)-9-((2-(2,6-dioxopiperidin-3-yl)-1-oxoisoindolin-4-yl)thio)-N-methylnonanamide], the IC50 in test [1] (setting [6]) turned out to be 46.7 nM.

Turning to `C=CC(=O)Nc1cc(Nc2nccc(-c3cn(C)c4ccccc34)n2)c(OC)cc1N(C)CCN(C)C(=O)CCCCCCCCCCSc1cccc2c1CN(C1CCC(=O)NC1=O)C2=O` (centres unmarked) [SIAIS337061, N-(2-((2-acrylamido-5-methoxy-4-((4-(1-methyl-1H-indol-3-yl)pyrimidin-2-yl)amino)phenyl)(methyl)amino)ethyl)-11-((2-(2,6-dioxopiperidin-3-yl)-1-oxoisoindolin-4-yl)thio)-N-methylundecanamide], the IC50 in test [1] (setting [6]) was determined as 353 nM.

In the case of `C=CC(=O)Nc1cc(Nc2nccc(-c3cn(C)c4ccccc34)n2)c(OC)cc1N(C)CCN(C)C(=O)COCCOCCSc1cccc2c1CN(C1CCC(=O)NC1=O)C2=O` (centres unmarked) [SIAIS337075, N-(2-((2-(2-(2-(2-((2-(2,6-dioxopiperidin-3-yl)-1-oxoisoindolin-4-yl)thio)ethoxy)ethoxy)-N-methylacetamido)ethyl)(methyl)amino)-4-methoxy-5-((4-(1-methyl-1H-indol-3-yl)pyrimidin-2-yl)amino)phenyl)acrylamide], the IC50 in test [1] (setting [6]) was found to be 170 nM.

Take `C=CC(=O)Nc1cc(Nc2nccc(-c3cn(C)c4ccccc34)n2)c(OC)cc1N(C)CCN(C)C(=O)COCCOCCOCCOCCSc1cccc2c1CN(C1CCC(=O)NC1=O)C2=O` (centres unmarked) [SIAIS337077, N-(2-((2-acrylamido-5-methoxy-4-((4-(1-methyl-1H-indol-3-yl)pyrimidin-2-yl)amino)phenyl)(methyl)amino)ethyl)-14-((2-(2,6-dioxopiperidin-3-yl)-1-oxoisoindolin-4-yl)thio)-N-methyl-3,6,9,12-tetraoxatetradecanamide]: in test [1] (setting [6]), the IC50 amounted to 36 nM.

Consider `C=CC(=O)Nc1cc(Nc2nccc(-c3cn(C)c4ccccc34)n2)c(OC)cc1N(C)CCN(C)C(=O)COCCOCCOCCOCCOCCSc1cccc2c1CN(C1CCC(=O)NC1=O)C2=O` (centres unmarked) [SIAIS337078, N-(2-((2-acrylamido-5-methoxy-4-((4-(1-methyl-1H-indol-3-yl)pyrimidin-2-yl)amino)phenyl)(methyl)amino)ethyl)-17-((2-(2,6-dioxopiperidin-3-yl)-1-oxoisoindolin-4-yl)thio)-N-methyl-3,6,9,12,15-pentaoxaheptadecanamide], for which the IC50 in test [1] (setting [6]) stood at 125 nM.

Consider `O=C1CCC(N2Cc3c(SCCC(=O)Nc4cc5c(Nc6ccc(F)c(Cl)c6)ncnc5cc4O[C@H]4CCOC4)cccc3C2=O)C(=O)N1` (stereo partly drawn) [SIAIS1210085, N-(4-((3-chloro-4-fluorophenyl)amino)-7-(((S)-tetrahydrofuran-3-yl)oxy)quinazolin-6-yl)-3-((2-(2,6-dioxopiperidin-3-yl)-1-oxoisoindolin-4-yl)thio)propanamide], for which the IC50 in test [1] (setting [7]) turned out to be 481 nM.

On to `O=C1CCC(N2Cc3c(SCCCC(=O)Nc4cc5c(Nc6ccc(F)c(Cl)c6)ncnc5cc4O[C@H]4CCOC4)cccc3C2=O)C(=O)N1` (stereo partly drawn) [SIAIS1210087, N-(4-((3-chloro-4-fluorophenyl)amino)-7-(((S)-tetrahydrofuran-3-yl)oxy)quinazolin-6-yl)-4-((2-(2,6-dioxopiperidin-3-yl)-1-oxoisoindolin-4-yl)thio)butanamide], for which the IC50 in test [1] (setting [7]) came to 238 nM.

Turning to `O=C1CCC(N2Cc3c(SCCCCCC(=O)Nc4cc5c(Nc6ccc(F)c(Cl)c6)ncnc5cc4O[C@H]4CCOC4)cccc3C2=O)C(=O)N1` (stereo partly drawn) [SIAIS1210089, N-(4-((3-chloro-4-fluorophenyl)amino)-7-(((S)-tetrahydrofuran-3-yl)oxy)quinazolin-6-yl)-6-((2-(2,6-dioxopiperidin-3-yl)-1-oxoisoindolin-4-yl)thio)hexanamide], the IC50 in test [1] (setting [7]) amounted to 160 nM.

Regarding `CNC(=O)CN1CCC(Oc2cc3c(Nc4cccc(Cl)c4F)ncnc3cc2OC)CC1` [Sapitinib (AZD8931), sapitinib, reference compound], in test [1] (setting [4]), the IC50 was determined as 0.4 nM.
